Publication PMC7897990, “TriTOX: A novel Trichomonas vaginalis assay platform for high-throughput screening of compound libraries” (International Journal for Parasitology: Drugs and Drug …, 2021)
Where two headings read alike, the source gives them in different places. Starred links: 1 amine or outer side, 2 acyl side, 3 side chain; linkers in the order of their positions; H or OH if unused. Positions of bridges follow the written chain, without caps; N, C: chain ends. Non-standard residues stand in square brackets, D forms with d. Residues, ends and D or L forms follow the SMILES beside them. Chains are numbered I, II in the order given. hTyr(3S-OH,4S-OH,3'-OSO3H) = N[C@H](C(=O)O)[C@H](O)[C@@H](O)c1ccc(O)c(OS(=O)(=O)O)c1; Actinocin(9to1) = Cc1c2oc3c(C)ccc(C(=O)[*:1])c3nc-2c(C(=O)[*:2])c(N)c1=O; Orn(4R-OH,5R-OH) = O=C([C@H](C[C@@H](O)[C@@H](O)N[*:3])N[*:1])[*:2]; Pro(3S-OH,4S-Me) = C[C@H]1CN[C@H](C(=O)O)[C@H]1O; Gln(3R-OH) = NC(=O)C[C@@H](O)[C@H](N)C(=O)O; Hyp = O=C(O)[C@@H]1C[C@@H](O)CN1; NMeV = CN[CH](C(=O)O)C(C)C; Sar = CNCC(=O)O

How the values were obtained:
[1] = system: Trichomonas vaginalis G3 trophozoites
[2] = system: nontumorigenic neonatal foreskin fibroblast (NFF) cell line
[3] = HTS, parasite screen at 1 µg/mL, replicate 1
[4] = HTS, parasite screen at 1 µg/mL, replicate 2
[5] = HTS single concentration, parasite screen 1 µg/mL, replicate 1
[6] = HTS single concentration, parasite screen 1 µg/mL, replicate 2
[7] = NFF_NS1 screen 5 µg/mL, single concentration
[8] = replicate 1; parasite screen at 1 µg/mL
[9] = replicate 2; parasite screen at 1 µg/mL
[10] = NFF fibroblast screen at 5 µg/mL, A = active, I = inactive
[11] = parasite screen at 1 µg/mL, replicate 1
[12] = parasite screen at 1 µg/mL, replicate 2
[13] = NFF_NS1 screen at 5 µg/mL, NFF cells

## C[C@@H](O)[C@@H]1NC(=O)[C@@H](N)C[C@@H](O)[C@@H](O)NC(=O)[C@@H]2[C@@H](O)[C@@H](C)CN2C(=O)[C@H]([C@H](O)CC(N)=O)NC(=O)[C@H]([C@H](O)[C@@H](O)c2ccc(O)c(OS(=O)(=O)O)c2)NC(=O)[C@@H]2C[C@@H](O)CN2C1=O [FR 179642] (H-[Orn(4R-OH,5R-OH)]T[Hyp][hTyr(3S-OH,4S-OH,3'-OSO3H)][Gln(3R-OH)][Pro(3S-OH,4S-Me)]; lactam 1-C)
[1]; [3]
  T.vaginalis_%inb_Rep1: 12.98%
[1]; HTS, parasite screen at 1 µg/mL, replicate 1, raw absorbance
  T.vaginalis_Absorbance_Rep1: 0.95
[1]; [4]
  T.vaginalis_%inb_Rep2: 14.17%
[1]; HTS, parasite screen at 1 µg/mL, replicate 2, raw absorbance
  T.vaginalis_Absorbance_Rep2: 0.816
[2]; NFF_NS1 screen at 5 µg/mL
  NFF_Activity: I (otherwise these were reported as inactive (I))

## C=CC(C)(C)C12CC3C(=O)Nc4ccccc4C(=O)N3C1Nc1ccccc12 (centres unmarked) [BIA-A1686]
[1]; [5]
  T.vaginalis_%inb_Rep1: 14.16%
[1]; [6]
  T.vaginalis_%inb_Rep2: 12.87%
[2]; [7]
  NFF_Activity: I (otherwise these were reported as inactive (I))

## C=C1c2c(Cl)ccc(O)c2C(O)=C2C(=O)C3(O)C(O)=C(C(N)=O)C(=O)C(N(C)C)C3C(O)C12 (centres unmarked) [BIA-M1464]
[1]; [8]
  T.vaginalis_%inb_Rep1: 17.14%
[1]; [9]
  T.vaginalis_%inb_Rep2: 5.39%
[2]; NFF cells, screen at 5 µg/mL
  NFF_Activity: I (otherwise these were reported as inactive (I))

## Cc1c2oc3c(C)ccc(C(=O)NC4C(=O)NC(C(C)C)C(=O)N5CCCC5C(=O)N(C)CC(=O)N(C)C(C(C)C)C(=O)OC4C)c3nc-2c(C(=O)NC2C(=O)NC(C(C)C)C(=O)N3CCCC3C(=O)N(C)CC(=O)N(C)C(C(C)C)C(=O)OC2C)c(N)c1=O (centres unmarked) [BIA-A1185] (I: TVP[Sar][NMeV] / II: TVP[Sar][NMeV]; ester I:1-I:C, II:1-II:C; linker I:N-II:N via Actinocin(9to1); configuration not given here)
[1]; [5]
  T.vaginalis_%inb_Rep1: 0.00%
[1]; [6]
  T.vaginalis_%inb_Rep2: 40.20%
[2]; [7]
  NFF_Activity: I (otherwise these were reported as inactive (I))

## C[C@@H]1CCC[C@H](O)CCC/C=C/c2cc(O)cc(O)c2C(=O)O1 [Zearalenol, beta-]
[1]; [3]
  T.vaginalis_%inb_Rep1: 9.54%
[1]; [4]
  T.vaginalis_%inb_Rep2: 15.05%
[2]; [10]
  NFF_Activity: I (otherwise these were reported as inactive (I))

## C[C@@H]1CCC[C@@H](O)CCC/C=C/c2cc(O)cc(O)c2C(=O)O1 [Zearalenol, alpha-]
[1]; [3]
  T.vaginalis_%inb_Rep1: 11.90%
[1]; [4]
  T.vaginalis_%inb_Rep2: 12.68%
[2]; [10]
  NFF_Activity: I (otherwise these were reported as inactive (I))

## COc1c(OC)c(-c2c[nH]c3ccccc23)c(OC)c(OC)c1-c1c[nH]c2ccccc12 [BIA-A1630]
[1]; [5]
  T.vaginalis_%inb_Rep1: 13.41%
[1]; [6]
  T.vaginalis_%inb_Rep2: 14.03%
[2]; [7]
  NFF_Activity: I (otherwise these were reported as inactive (I))

## C=C1CCOC2(C(O)C(C)(O)CO)NC(=O)C1(O)NC2=O (centres unmarked) [BIA-B1367]
[1]; [5]
  T.vaginalis_%inb_Rep1: 15.02%
[1]; [6]
  T.vaginalis_%inb_Rep2: 15.26%
[2]; [7]
  NFF_Activity: I (otherwise these were reported as inactive (I))

## CCCCCCCCCCCCCCCC(=O)N[C@H]1CCOC1=O [BIA-H1500]
[1]; [8]
  T.vaginalis_%inb_Rep1: 13.84%
[1]; [9]
  T.vaginalis_%inb_Rep2: 11.55%
[2]; NFF cells, screen at 5 µg/mL
  NFF_Activity: I (otherwise these were reported as inactive (I))

## CC[C@H](C)[C@H]1O[C@]2(C=C[C@@H]1C)C[C@@H]1C[C@@H](C/C=C(\C)[C@@H](O[C@H]3C[C@H](OC)[C@@H](O)[C@H](C)O3)[C@@H](C)/C=C/C=C3\CO[C@@H]4[C@H](O)C(C)=C[C@@H](C(=O)O1)[C@]34O)O2 [BIA-A1585]
[1]; [5]
  T.vaginalis_%inb_Rep1: 14.27%
[1]; [6]
  T.vaginalis_%inb_Rep2: 12.58%
[2]; [7]
  NFF_Activity: I (otherwise these were reported as inactive (I))

## CCCCCCCCCCCC[C@@H](C(=O)O)[C@H](C)C(=O)O [BIA-R1904]
[1]; [11]
  T.vaginalis_%inb_Rep1: 13.79%
[1]; [12]
  T.vaginalis_%inb_Rep2: 5.71%
[2]; [13]
  NFF_Activity: I (otherwise these were reported as inactive (I))

## CN(C)[C@@H]1C(=O)C(C(N)=O)=C(O)[C@@]2(O)C(=O)C3=C(O)c4c(O)cccc4C[C@H]3C[C@@H]12.Cl [BIA-S1534]
[1]; [11]
  T.vaginalis_%inb_Rep1: 5.02%
[1]; [12]
  T.vaginalis_%inb_Rep2: 3.66%
[2]; [13]
  NFF_Activity: I (otherwise these were reported as inactive (I))

## COC(=O)C1=CO[C@@H](C)[C@@H]2CN3CCc4c([nH]c5cc(OC)c(OC)cc45)[C@H]3C[C@H]12 [BIA-R1946]
[1]; [11]
  T.vaginalis_%inb_Rep1: 11.06%
[1]; [12]
  T.vaginalis_%inb_Rep2: 13.59%
[2]; [13]
  NFF_Activity: I (otherwise these were reported as inactive (I))

## C=C[C@@](C)(CCC=C(C)C)c1ccc2c3c(c[nH]c13)C[C@@H](CO)NC(=O)[C@H](C(C)C)N2C [BIA-T1429]
[1]; [11]
  T.vaginalis_%inb_Rep1: 11.80%
[1]; [12]
  T.vaginalis_%inb_Rep2: 16.64%
[2]; [13]
  NFF_Activity: I (otherwise these were reported as inactive (I))

## COc1c(-c2ccccc2)c2ccccc2[nH]c1=O [BIA-M1149]
[1]; [8]
  T.vaginalis_%inb_Rep1: 20.69%
[1]; [9]
  T.vaginalis_%inb_Rep2: 13.28%
[2]; NFF cells, screen at 5 µg/mL
  NFF_Activity: I (otherwise these were reported as inactive (I))

## CCCCCCCCCCCCCC(=O)N[C@H]1CCOC1=O [BIA-T1499]
[1]; [11]
  T.vaginalis_%inb_Rep1: 6.40%
[1]; [12]
  T.vaginalis_%inb_Rep2: 13.16%
[2]; [13]
  NFF_Activity: I (otherwise these were reported as inactive (I))

## CC1(C)C=Cc2c(ccc3ccc(=O)oc23)O1 [BIA-S1776]
[1]; [11]
  T.vaginalis_%inb_Rep1: 12.88%
[1]; [12]
  T.vaginalis_%inb_Rep2: 13.28%
[2]; [13]
  NFF_Activity: I (otherwise these were reported as inactive (I))

## COc1cccc2oc3c4c(cc(OC)c3c(=O)c12)OC1OC=CC41 (centres unmarked) [BIA-M1214]
[1]; [8]
  T.vaginalis_%inb_Rep1: 13.54%
[1]; [9]
  T.vaginalis_%inb_Rep2: 12.19%
[2]; NFF cells, screen at 5 µg/mL
  NFF_Activity: I (otherwise these were reported as inactive (I))

## C=CCNC1=C2CC(C)CC(OC)C(O)C(C)C=C(C)C(OC(N)=O)C(OC)C=CC=C(C)C(=O)NC(=CC1=O)C2=O (centres unmarked) [BIA-A1923]
[1]; [5]
  T.vaginalis_%inb_Rep1: 11.27%
[1]; [6]
  T.vaginalis_%inb_Rep2: 34.13%
[2]; [7]
  NFF_Activity: I (otherwise these were reported as inactive (I))

## CO[C@H]1[C@H](O)[C@@H](O)[C@H](n2c3c(Cl)cccc3c3c4c(c5c6cccc(Cl)c6[nH]c5c32)C(=O)NC4=O)O[C@@H]1CO [BIA-R1075]
[1]; [11]
  T.vaginalis_%inb_Rep1: 10.49%
[1]; [12]
  T.vaginalis_%inb_Rep2: 13.95%
[2]; [13]
  NFF_Activity: I (otherwise these were reported as inactive (I))

## CC1=C[C@H]2O[C@@H]3[C@H](O)[C@@H](O)[C@](C)([C@@]2(CO)C[C@@H]1OC(=O)CC(C)C)[C@]31CO1 [BIA-T1934]
[1]; [11]
  T.vaginalis_%inb_Rep1: 10.70%
[1]; [12]
  T.vaginalis_%inb_Rep2: 12.37%
[2]; [13]
  NFF_Activity: I (otherwise these were reported as inactive (I))

## CC[C@H](C)[C@H]1O[C@]2(CC[C@@H]1C)C[C@@H]1C[C@@H](C/C=C(\C)[C@@H](O)[C@@H](C)/C=C/C=C3\CO[C@@H]4[C@H](O)C(C)=C[C@@H](C(=O)O1)[C@]34O)O2 [BIA-I1151]
[1]; [8]
  T.vaginalis_%inb_Rep1: 12.98%
[1]; [9]
  T.vaginalis_%inb_Rep2: 12.38%
[2]; NFF cells, screen at 5 µg/mL
  NFF_Activity: I (otherwise these were reported as inactive (I))

## CC1=C(O)C(=O)[C@@H]2O[C@@H]2C1=O [BIA-T1695]
[1]; [11]
  T.vaginalis_%inb_Rep1: 9.91%
[1]; [12]
  T.vaginalis_%inb_Rep2: 12.25%
[2]; [13]
  NFF_Activity: A (active (A) compounds having >25% inhibitory activity)

## C=C(C)C1CCC2(C)CCC3(C)C(CCC4C5(C)CCC(O)C(C)(C)C5CCC43C)C12 (centres unmarked) [BIA-L1759]
[1]; [8]
  T.vaginalis_%inb_Rep1: 12.73%
[1]; [9]
  T.vaginalis_%inb_Rep2: 12.70%
[2]; NFF cells, screen at 5 µg/mL
  NFF_Activity: I (otherwise these were reported as inactive (I))

## COC(=O)C1(O)CC2OC1(C)n1c3ccccc3c3c4c(c5c6ccccc6n2c5c31)C(=O)NC4 (centres unmarked) [BIA-K1225]
[1]; [8]
  T.vaginalis_%inb_Rep1: 61.16%
[1]; [9]
  T.vaginalis_%inb_Rep2: 66.84%
[2]; NFF cells, screen at 5 µg/mL
  NFF_Activity: A (active (A) compounds having >25% inhibitory activity)
